These results are taken from US10550105B2 (Ribon Therapeutics Inc., priority 2018, dated 2020).

Sequence of PARP7 (Q7Z3E1 whole entry): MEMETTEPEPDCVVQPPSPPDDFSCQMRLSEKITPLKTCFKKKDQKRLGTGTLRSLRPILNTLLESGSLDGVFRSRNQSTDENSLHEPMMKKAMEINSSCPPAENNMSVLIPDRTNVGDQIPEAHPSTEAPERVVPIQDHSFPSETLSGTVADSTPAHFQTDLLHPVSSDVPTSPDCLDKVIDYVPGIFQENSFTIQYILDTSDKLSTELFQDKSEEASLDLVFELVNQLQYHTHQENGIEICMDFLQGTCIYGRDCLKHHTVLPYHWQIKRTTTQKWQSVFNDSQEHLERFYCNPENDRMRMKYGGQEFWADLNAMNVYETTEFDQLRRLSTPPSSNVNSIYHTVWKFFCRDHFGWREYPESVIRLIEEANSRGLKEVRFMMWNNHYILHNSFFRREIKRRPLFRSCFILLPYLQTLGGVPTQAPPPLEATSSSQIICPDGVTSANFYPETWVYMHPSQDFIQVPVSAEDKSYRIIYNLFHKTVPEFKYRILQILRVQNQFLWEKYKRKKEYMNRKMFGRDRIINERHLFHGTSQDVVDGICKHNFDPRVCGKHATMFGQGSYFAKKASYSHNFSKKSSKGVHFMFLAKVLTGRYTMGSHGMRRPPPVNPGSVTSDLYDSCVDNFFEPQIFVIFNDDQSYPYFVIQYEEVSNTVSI

This assay deals with PARP7 (Homo sapiens (Human), UniProt Q7Z3E1). The assay can be described thus: Enzymatic assay for inhibition of PARP7: TR-FRET displacement of biotinylated Probe A from the TIPARP active site. In kind it is binding. To be noted: Table A-1. How it is done:
20 nL of a dose response curve of each test compound was spotted in black 384-well polystyrene proxiplates (Perkin Elmer) using a Mosquito (TTP Labtech). […] Reactions were incubated at 25° C. for an additional 30 min, then read on an Envision platereader equipped with a LANCE/DELFIA top mirror (Perkin Elmer) using excitation of 320 nm and emission of 615 nm and […] with a 90 μs delay. The ratio of the 665/615 nm emission were calculated for each well to determine the amount of complex of TIPARP and Probe A in each well. […] The Hill Coefficient is normally allowed to float but may also be fixed at 1 in a 3-parameter fit. Y is the % inhibition and x is the compound concentration.
In turn, `N#Cc1ccc(N2CCN(C(=O)CCO[C@@H]3Cc4ccccc4[C@H]3Nc3cn[nH]c(=O)c3C(F)(F)F)CC2)nc1` (single isomer, unassigned) [Example 537 Isomer B] displayed an IC50 of less than 100 nM.

Compound `C[C@H](CC(=O)N1CCN(c2ccc(C#N)cn2)CC1)OCCOc1cn[nH]c(=O)c1C(F)(F)F` (single isomer, unassigned) [Example 538 Isomer A] yielded an IC50 of 100 to 1000 nM.

Regarding `C[C@@H](CC(=O)N1CCN(c2ccc(C#N)cn2)CC1)OCCOc1cn[nH]c(=O)c1C(F)(F)F` (single isomer, unassigned) [Example 538 Isomer B], the IC50 was less than 100 nM.

`C[C@@H](COCCC(=O)N1CCN(c2ccc(Cl)cn2)CC1)Oc1cn[nH]c(=O)c1C(F)(F)F` (single isomer, unassigned) [Example 539 Isomer A] displayed a concentration for half-maximal inhibition (IC50) of less than 100 nM.

`C[C@@H](COc1cn[nH]c(=O)c1C(F)(F)F)OCCC(=O)N1CCN(c2ccc(Cl)cn2)CC1` (single isomer, unassigned) [Example 539 Isomer B] gave an IC50 of 100 to 1000 nM.

The compound `C[C@H](COc1cn[nH]c(=O)c1C(F)(F)F)OCCC(=O)N1CCN(c2ccc(Cl)cn2)CC1` (single isomer, unassigned) [Example 539 Isomer C] had a concentration for half-maximal inhibition (IC50) of less than 100 nM.

In turn, `C[C@H](COCCC(=O)N1CCN(c2ccc(Cl)cn2)CC1)Oc1cn[nH]c(=O)c1C(F)(F)F` (single isomer, unassigned) [Example 539 Isomer D] came in with an IC50 of 100 to 1000 nM.

`C[C@@H](COCCC(=O)N1CCN(c2ncc(Cl)cn2)CC1)Oc1cn[nH]c(=O)c1C(F)(F)F` (single isomer, unassigned) [Example 543 Isomer A] showed an IC50 of less than 100 nM.

As to `C[C@@H](COc1cn[nH]c(=O)c1C(F)(F)F)OCCC(=O)N1CCN(c2ncc(Cl)cn2)CC1` (single isomer, unassigned) [Example 543 Isomer B], the IC50 was less than 100 nM.

As for `C[C@H](COc1cn[nH]c(=O)c1C(F)(F)F)OCCC(=O)N1CCN(c2ncc(Cl)cn2)CC1` (single isomer, unassigned) [Example 543 Isomer C], the IC50 was less than 100 nM.

`C[C@@H](COCCC(=O)N1CCN(c2ncc(C(F)(F)F)cn2)CC1)Oc1cn[nH]c(=O)c1C(F)(F)F` (single isomer, unassigned) [Example 544 Isomer A] showed an IC50 of less than 100 nM.

Consider `C[C@H](COCCC(=O)N1CCN(c2ncc(C(F)(F)F)cn2)CC1)Oc1cn[nH]c(=O)c1C(F)(F)F` (single isomer, unassigned) [Example 544 Isomer B], for which the IC50 lay within 100 to 1000 nM.

On to `C[C@@H](COc1cn[nH]c(=O)c1C(F)(F)F)OCCC(=O)N1CCN(c2ncc(C(F)(F)F)cn2)CC1` (single isomer, unassigned) [Example 544 Isomer C], for which the IC50 is less than 100 nM.

Turning to `C[C@H](COc1cn[nH]c(=O)c1C(F)(F)F)OCCC(=O)N1CCN(c2ncc(C(F)(F)F)cn2)CC1` (single isomer, unassigned) [Example 544 Isomer D], the concentration for half-maximal inhibition (IC50) was in the range of 100 to 1000 nM.

Compound `O=C(C[C@@H]1CC[C@@H](COc2cn[nH]c(=O)c2C(F)(F)F)O1)N1CCN(c2ccc(C(F)(F)F)cn2)CC1` (single isomer, unassigned) [Example 545 Isomer A] returned an IC50 of 100 to 1000 nM.

`O=C(C[C@H]1CC[C@@H](COc2cn[nH]c(=O)c2C(F)(F)F)O1)N1CCN(c2ccc(C(F)(F)F)cn2)CC1` (single isomer, unassigned) [Example 545 Isomer B]: the IC50 lay in the range of 100 to 1000 nM.

`O=C(C[C@H]1CC[C@H](COc2cn[nH]c(=O)c2C(F)(F)F)O1)N1CCN(c2ccc(C(F)(F)F)cn2)CC1` (single isomer, unassigned) [Example 545 Isomer C] yielded an IC50 of less than 100 nM.

Regarding `O=C(C[C@@H]1CC[C@H](COc2cn[nH]c(=O)c2C(F)(F)F)O1)N1CCN(c2ccc(C(F)(F)F)cn2)CC1` (single isomer, unassigned) [Example 545 Isomer D], the IC50 is less than 100 nM.
